Results reported in patent publication US12570656B2, “Purine compounds for treating disorders” (MARVEL BIOTECHNOLOGY, priority 2020, dated 2026).
Values joined by “and” are separate entries in the source; they are usually repeats but may differ in a detail not shown here. Equal entries are not always repeated. Where two headings read alike, the source gives them in different places.

Columns and labels:
[1] = target: ADORA2A (Homo sapiens, UniProt P29274); test: GPCR screening, calcium flux (calcium mobilization), antagonist format; assay type: cell-based
ADORA2A, sequence (P29274 whole entry): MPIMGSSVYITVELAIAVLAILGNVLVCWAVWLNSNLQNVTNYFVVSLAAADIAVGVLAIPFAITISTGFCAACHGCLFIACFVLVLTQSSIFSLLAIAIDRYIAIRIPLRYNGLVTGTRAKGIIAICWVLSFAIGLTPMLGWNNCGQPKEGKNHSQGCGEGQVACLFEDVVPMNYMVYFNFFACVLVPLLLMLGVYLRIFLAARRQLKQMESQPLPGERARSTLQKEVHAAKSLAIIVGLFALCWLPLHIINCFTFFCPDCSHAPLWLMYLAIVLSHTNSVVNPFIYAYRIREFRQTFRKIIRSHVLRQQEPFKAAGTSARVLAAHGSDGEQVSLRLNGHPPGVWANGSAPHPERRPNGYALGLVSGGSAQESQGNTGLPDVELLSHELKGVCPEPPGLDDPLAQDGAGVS
Method: To ascertain whether the compounds are suitable A2aR antagonists, the compounds of formulae I, II, III, and IV were subjected to GPCR screening using A2aR as the target. The screening was done using the GPCR Screening and Profiling Services by Eurofins DiscoverX Corporation.
The compounds of formulae I, II, III, and IV were screened for GPCR activity using A2aR as the target.
Cell lines were expanded from freezer stocks according to standard procedures. Cells were seeded in a total volume of 20 μL into black-walled, clear-bottom, Poly-D-lysine coated 384-well microplates and incubated at 37° C. for the appropriate time prior to testing.
Assays were performed in 1× Dye Loading Buffer consisting of 1× Dye, 1× Additive A and 2.5 mM Probenecid in HBSS/20 mM Hepes. Probenicid was prepared fresh. Cells were loaded with dye prior to testing. Media was aspirated from cells and replaced with 20 μL Dye Loading Buffer. Cells were incubated for 30-60 minutes at 37° C.
For antagonist determination, cells were pre-incubated with sample followed by agonist challenge at the EC80 concentration. Intermediate dilution of sample stocks was performed to generate 3× sample in assay buffer. After dye loading, cells were removed from the incubator and 10 μL 3× sample was added. Cells were incubated for 30 minutes at room temperature in the dark to equilibrate plate temperature. Vehicle concentration was 1%. Compound antagonist activity was measured on a FLIPR Tetra (MDS). Calcium mobilization was monitored for 2 minutes and 10 μL EC80 agonist in HBSS/20 mM Hepes was added to the cells 5 seconds into the assay.
For antagonist and negative allosteric modulation mode assays, percentage inhibition is calculated using the following formula: % Inhibition=100%×(1−(mean RFU of test sample−mean RFU of vehicle control)/(mean RFU of EC80 control−mean RFU of vehicle control)).
When the calcium was released, the fluorescence of the dye was increased and the increase was measured in real-time.
FIGS. 1 to 6 show percent reacted (Y) versus concentration in μM (X). Compounds were tested in antagonist mode with the requested GPCR Biosensor Assay. For the antagonist assay, data was normalized to the maximal and minimal response observed in the presence of EC80 ligand and vehicle.

[2] = Plasma pharmacokinetics in male CD-1 mice (1 mg/kg i.v. or 3 mg/kg p.o.); details: CD-1, mouse, in vivo
Method: (§1) Male CD-1 mice were given either bolus 1 mg/kg i.v. or 3 mg/kg p.o. of the indicated compounds and plasma or brain concentrations were measured.
(§2) Where: • C0 concentration extrapolated to time zero following an i.v. dose • tmax time at which maximum concentration is observed • Cmax maximum observed concentration • Apparent t1/2 apparent terminal half-life • AUC0-tlast area under the concentration vs time curve from time 0 to the time of the last measurable concentration • AUC0-inf area under the concentration vs time curve from time 0 to infinity • CL systemic clearance • MRT0-inf mean residence time from time zero to infinity • Vss steady-state volume of distribution • F oral bioavailability=(Dose^iv*AUC^po)/(Dose^po*AUC^iv)*100

[3] = Brain pharmacokinetics and brain/plasma ratio in male CD-1 mice (1 mg/kg i.v.); assay type: in vivo; details: for Brain concentration / concentration at 5 min / concentration at 0.25 h / concentration at 0.5 h / concentration at 1 h / concentration at 2 h / concentration at 4 h / concentration at 6 h / concentration at 8 h: 1 mg/kg bolus i.v.; for concentration at 5 min / concentration at 0.25 h / concentration at 0.5 h / concentration at 1 h / concentration at 2 h / concentration at 4 h / concentration at 6 h / concentration at 8 h: intravenous, 1 mg/kg
Method: as §1, §2

[4] = male, CD-1, mouse, iv, brain, i.v. 1 mg/kg

CCn1c(=S)c2c(nc(/C=C/c3ccc(OC)c(OC)c3)n2C)n(CC)c1=O [Formula III, 8-[(E)-2-(3,4-dimethoxyphenyl)vinyl]-1,3-diethyl-7-methyl-6-thioxo-purin-2-one]
Curve Bottom ([1]; Antagonist format): 5.0984 | Curve Top ([1]; Antagonist format): 98 | Hill ([1]; Antagonist format): 1.3853 | Emax ([1]; read-out: Max Response): 97.1% | bioavailability [2]: 21.5% | AUC(0-inf) ([2]; iv, 1 mg/kg): 1580 ng·h/mL | AUC(0-t) ([2]; iv, 1 mg/kg): 1280 ng·h/mL | Cmax ([2]; iv, 1 mg/kg): 360 ng/mL | MRT inf ([2]; iv, 1 mg/kg): 4.73 h | Tmax ([2]; iv, 1 mg/kg): 0.25 h | Vd ([2]; iv, 1 mg/kg): 3 L/kg | clearance ([2]; iv, 1 mg/kg): 10.6 mL/min/kg | half-life ([2]; iv, 1 mg/kg): 3.39 h | AUC(0-inf) ([2]; po, 3 mg/kg): 1020 ng·h/mL | AUC(0-t) ([2]; po, 3 mg/kg): 988 ng·h/mL | Cmax ([2]; po, 3 mg/kg): 124 ng/mL | MRT inf ([2]; po, 3 mg/kg): 7.55 h | Tmax ([2]; po, 3 mg/kg): 1 h | half-life ([2]; po, 3 mg/kg): 4.44 h | Brain concentration ([3]; 5 min, individual animals 1-3): 383 ng/g and 368 ng/g | Brain concentration ([3]; 0.25 h, individual animals 1-3): 454 ng/g and 394 ng/g | Brain concentration ([3]; 0.5 h, individual animals 1-3): 457 ng/g and 304 ng/g | Brain concentration ([3]; 1 h, individual animals 1-3): 348 ng/g and 354 ng/g | Brain concentration ([3]; 2 h, individual animals 1-3): 239 ng/g and 224 ng/g | Brain concentration ([3]; 4 h, individual animals 1-3): 165 ng/g and 113 ng/g | Brain concentration ([3]; 6 h, individual animals 1-3): 94.1 ng/g and 81.5 ng/g | Brain concentration ([3]; 8 h, individual animals 1-3): 63.9 ng/g and 38.8 ng/g | AUC0-tlast ([3]; brain, i.v. 1 mg/kg): 1315 ng·h/g | AUC(0-inf) ([3]; brain, i.v. 1 mg/kg): 1517 ng·h/g | concentration at 5 min ([3]; male, CD-1, mouse, brain, 5 min, individual animals 1-3, read-out: Brain concentration): 490 ng/g | concentration at 5 min ([3]; male, CD-1, mouse, brain, 5 min, read-out: Brain concentration, Mean): 414 ng/g | concentration at 0.25 h ([3]; male, CD-1, mouse, brain, 0.25 h, individual animals 1-3, read-out: Brain concentration): 379 ng/g | concentration at 0.25 h ([3]; male, CD-1, mouse, brain, 0.25 h, read-out: Brain concentration, Mean): 409 ng/g | concentration at 0.5 h ([3]; male, CD-1, mouse, brain, 0.5 h, individual animals 1-3, read-out: Brain concentration): 379 ng/g | concentration at 0.5 h ([3]; male, CD-1, mouse, brain, 0.5 h, read-out: Brain concentration, Mean): 380 ng/g | concentration at 1 h ([3]; male, CD-1, mouse, brain, 1 h, individual animals 1-3, read-out: Brain concentration): 262 ng/g | concentration at 1 h ([3]; male, CD-1, mouse, brain, 1 h, read-out: Brain concentration, Mean): 321 ng/g | concentration at 2 h ([3]; male, CD-1, mouse, brain, 2 h, individual animals 1-3, read-out: Brain concentration): 212 ng/g | concentration at 2 h ([3]; male, CD-1, mouse, brain, 2 h, read-out: Brain concentration, Mean): 225 ng/g | concentration at 4 h ([3]; male, CD-1, mouse, brain, 4 h, individual animals 1-3, read-out: Brain concentration): 96.9 ng/g | concentration at 4 h ([3]; male, CD-1, mouse, brain, 4 h, read-out: Brain concentration, Mean): 125 ng/g | concentration at 6 h ([3]; male, CD-1, mouse, brain, 6 h, individual animals 1-3, read-out: Brain concentration): 90.1 ng/g | concentration at 6 h ([3]; male, CD-1, mouse, brain, 6 h, read-out: Brain concentration, Mean): 88.6 ng/g | concentration at 8 h ([3]; male, CD-1, mouse, brain, 8 h, individual animals 1-3, read-out: Brain concentration): 45.5 ng/g | concentration at 8 h ([3]; male, CD-1, mouse, brain, 8 h, read-out: Brain concentration, Mean): 49.4 ng/g | Cmax [3, 4]: 414 ng/g | Tmax [3, 4]: 5 min | half-life ([3]; male, CD-1, mouse, iv, brain, i.v. 1 mg/kg, read-out: Apparent t1/2 (converted)): 2.83 h | MRT inf ([3]; male, CD-1, mouse, iv, brain, i.v. 1 mg/kg, read-out: MRT0-inf): 3.94 h
